{
  "source": "patent US9339478B2",
  "about": "“Pharmaceutical formulation” (RECKITT BENCKISER LLC, priority 2011, dated 2016)",
  "origin": "cited, not measured here",
  "conditions": "per dose, typical",
  "data": [
    {"smiles": "COc1ccc2c3c1O[C@H]1[C@@H](O)C=C[C@H]4[C@@H](C2)N(C)CC[C@@]341", "note": "[codeine]", "values": [
      {"measurement": "period of therapeutic effect / relief provided by a dose", "result": "2.5 to 3", "unit": "h"}
    ]}
  ]
}
